{
  "source": "paper PMC3856088",
  "about": "“Small Molecule Binding, Docking, and Characterization of the Interaction between Pth1 and Peptidyl-tRNA” (International Journal of Molecular Sciences, 2013)",
  "biological_target": "T1, E. coli Pth1 (Escherichia coli, UniProt P0A7D1)",
  "T1 construct": "gene pth; wild type, 15N-labelled, expressed in E. coli W3110, purified on His-Trap FF (tag not described), 21 kDa monomer",
  "T1 sequence (P0A7D1 2-194)": "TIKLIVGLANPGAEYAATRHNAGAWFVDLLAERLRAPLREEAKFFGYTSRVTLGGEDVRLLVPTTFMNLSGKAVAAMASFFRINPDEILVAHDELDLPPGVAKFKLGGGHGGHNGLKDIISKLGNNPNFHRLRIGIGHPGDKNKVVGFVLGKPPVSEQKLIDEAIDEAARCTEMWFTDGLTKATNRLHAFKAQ",
  "experiment": "1H-15N HSQC NMR titration, chemical shift perturbation mapping",
  "conditions": "20 mM Bis-Tris, 100 mM NaCl, 2 mM TCEP, pH 6.6, 25 °C; 200 uM 15N Pth1; ligand:protein up to 64:1; site opposite the substrate binding face",
  "data": [
    {"smiles": "c1cc2c(cc1CN1CCNCC1)OCO2", "note": "[piperonylpiperazine]", "values": [
      {"measurement": "1H-15N HSQC NMR titration, chemical shift perturbation mapping", "value": "The binding of piperonylpiperazine to wild type E. coli Pth1 was studied by NMR spectroscopy"}
    ]}
  ]
}
